Measurements as given in ChEMBL document CHEMBL1135026, “Synthesis of fluorescent biochemical tools related to the 2-azetidinone class of cholesterol absorption inhibitors” (2002).

Legend:
Format in all cases: functional
Rattus norvegicus [1] = assay: Percent inhibition of 14C]cholesterol absorption into plasma using cholesterol absorption assay in rats at the dose of 300 ug/Kg
Rattus norvegicus [2] = assay: Percent inhibition of 14C]cholesterol absorption into plasma using cholesterol absorption assay in rats at the dose of 100 ug/Kg
Rattus norvegicus [3] = assay: Percent inhibition of 14C]cholesterol absorption into plasma using cholesterol absorption assay in rats at the dose of 30 ug/Kg
Rattus norvegicus [4] = assay: Percent inhibition of 14C]cholesterol absorption into plasma using cholesterol absorption assay in rats at the dose of 186 ug/Kg
Rattus norvegicus [5] = assay: Percent inhibition of 14C]cholesterol absorption into plasma using cholesterol absorption assay in rats at the dose of 56 ug/Kg
Rattus norvegicus [6] = assay: Percent inhibition of 14C]cholesterol absorption into plasma using cholesterol absorption assay in rats at the dose of 10 ug/Kg
Rattus norvegicus [7] = assay: Percent inhibition of 14C]cholesterol absorption into plasma using cholesterol absorption assay in rats at the dose of 3 ug/Kg
Rattus norvegicus [8] = species: Rattus norvegicus; assay: Compound was tested for cholesterol absorption inhibition in rats by bolus injection 1 mL) via the intestinal catheter into the small intestine, by cholesterol absorption assay; settings: read-out: ID50 (the source's name)
Rattus norvegicus [9] = assay: Percent inhibition of 14C]cholesterol absorption into plasma using cholesterol absorption assay in rats at the dose of 2000 ug/Kg

Row | Compound | inhibition in vivo at 0.1 mg/kg (Rattus norvegicus [2]) [%] | inhibition in vivo at 0.03 mg/kg (Rattus norvegicus [3]) [%] | inhibition in vivo at 0.01 mg/kg (Rattus norvegicus [6]) [%] | further results
1 | Cc1cc(C)n(B(F)F)c1/C=C1/C=CC(CCC(=O)NCC#Cc2ccc(N3C(=O)[C@H](CC[C@H](O)c4ccc(F)cc4)[C@H]3c3ccc(O[C@@H]4O[C@H](C(=O)O)[C@@H](O)[C@H](O)[C@H]4O)cc3)cc2)=N1 | 80 | 58 | – | inhibition in vivo at 0.3 mg/kg (Rattus norvegicus [1]): 92%
2 | O=C(CCCCCNC(=O)c1ccc(-c2c3ccc(=O)cc-3oc3cc(O)ccc23)c(C(=O)O)c1)NCC#Cc1ccc(N2C(=O)[C@H](CC[C@H](O)c3ccc(F)cc3)[C@H]2c2ccc(O[C@@H]3O[C@H](C(=O)O)[C@@H](O)[C@H](O)[C@H]3O)cc2)cc1 | – | 85 | – | inhibition in vivo at 0.186 mg/kg (Rattus norvegicus [4]): 88%; inhibition in vivo at 0.056 mg/kg (Rattus norvegicus [5]): 79%
3 | O=C(O)[C@H]1O[C@@H](Oc2ccc([C@@H]3[C@@H](CC[C@H](O)c4ccc(F)cc4)C(=O)N3c3ccc(F)cc3)cc2)[C@H](O)[C@@H](O)[C@@H]1O | – | – | 91 | –
4 | O=C(O)[C@H]1O[C@@H](Oc2ccc([C@@H]3[C@@H](CC[C@H](O)c4ccc(F)cc4)C(=O)N3c3cccc4nsnc34)cc2)[C@H](O)[C@@H](O)[C@@H]1O | 85 | 83 | 66 | –
5 | O=C1[C@H](CC[C@H](O)c2ccc(F)cc2)[C@@H](c2ccc(O)cc2)N1c1ccc(F)cc1 [EZETIMIBE] | – | – | 74 | inhibition in vivo at 0.003 mg/kg (Rattus norvegicus [7]): 63%; ED50 (Rattus norvegicus [8]): 1.6 µg/kg
6 | COc1ccc([C@@H]2[C@@H](CCCc3ccccc3)C(=O)N2c2ccc(OC)cc2)cc1 [SCH-48461] | – | – | – | inhibition in vivo at 2 mg/kg (Rattus norvegicus [9]): 95%
